Test results: ChEMBL document CHEMBL1150049, “Isolation and characterization of an antiviral flavonoid from Waldsteinia fragarioides” (J Nat Prod, 1992)
Active and inactive are the calls of the source. The rule behind the calls is not given here.

What was measured:
Vero = assay: Cytotoxicity against african green monkey Vero cells at 250 ug/ml; assay type: cell-based; conditions: chlorocebus sabaeus
Human alphaherpesvirus 1 = assay: Antiviral activity against HSV1 infected in african green monkey Vero cells assessed as suppression of plaque formation at 40 ug/ml by plaque-reduction assay; assay type: functional, organism-based

Compound: O=c1c(O[C@@H]2O[C@H](CO)[C@@H](O)[C@H](O)[C@H]2O)c(-c2ccc(O)c(O)c2)oc2cc(O)cc(O)c12 [ISOQUERCETIN]
- Activity (Vero): Toxic
- Activity (Human alphaherpesvirus 1): Active
